Source: patent US20260250318A1, “COMPOSITIONS AND METHODS FOR CROSSING THE BLOOD BRAIN BARRIER” (VOYAGER THERAPEUTICS, INC., priority 2022, published 2026)

Legend:
[1] = system: brains, heart, liver, muscle, and DRG of the NHPs; assay: Maturation of TTM-001 and TTM-002 capsids, NGS enrichment in NHP tissues; type: in vivo; conditions: relative to AAV9 control
Method in brief: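 Variants carry mutations within and flanking the loop IV peptide insert: positions 450–466 were triplet-randomized, while positions 449–466 received low-frequency point mutations. The combined pool went into two NHPs, and each peptide was scored by NGS enrichment ratio against AAV9.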

brain = assay: Matured TTM-001 and TTM-002 variants, NGS enrichment in mouse brain; type: in vivo, mice; conditions: relative to AAV9 control
[2] = NGS fold-enrichment of matured AAV capsid variants, NHP brain, RNA
[3] = NGS fold-enrichment of RNA, NHP brain
[4] = NGS fold-enrichment, NHP liver DNA
[5] = NGS fold-enrichment, NHP liver RNA
[6] = NGS fold-enrichment, NHP muscle
[7] = NGS fold-enrichment, mouse brain
[8] = NGS fold-enrichment, DRG of NHPs
[9] = NGS fold-enrichment, RNA, brain of NHPs
[10] = NGS fold-enrichment, heart of NHPs
[11] = NGS fold-enrichment, liver DNA of NHPs
[12] = NGS fold-enrichment, liver RNA of NHPs
[13] = NGS fold-enrichment, muscle of NHPs
[14] = NGS fold-enrichment, brain of mice

| Sequence | Fold Enrichment relative to AAV9, Brain (NHP) [1, 2] [fold] | Fold Enrichment relative to AAV9, DRG (NHP) ([1]; NHP DRG) [fold] | Fold Enrichment relative to AAV9, Heart (NHP) ([1]; NHP heart) [fold] | Fold Enrichment relative to AAV9, Liver DNA (NHP) ([1]; NHP liver, DNA) [fold] | Fold Enrichment relative to AAV9, Liver RNA (NHP) ([1]; NHP liver, RNA) [fold] | Fold Enrichment relative to AAV9, Muscle (NHP) ([1]; NHP muscle) [fold] | Fold Enrichment relative to AAV9, Brain (Mouse) (brain; mouse brain) [fold] | Fold Enrichment relative to AAV9, DRG (NHP) [1, 8] [fold] | Fold Enrichment relative to AAV9, Brain (NHP) [1, 9] [fold] | Fold Enrichment relative to AAV9, Heart (NHP) [1, 10] [fold] | Fold Enrichment relative to AAV9, Liver DNA (NHP) [1, 11] [fold] | Fold Enrichment relative to AAV9, Liver RNA (NHP) [1, 12] [fold] | Fold Enrichment relative to AAV9, Muscle (NHP) [1, 13] [fold] | Fold Enrichment relative to AAV9, Brain (Mouse) (brain; [14]) [fold] | also measured |
| --- | --- | --- | --- | --- | --- | --- | --- | --- | --- | --- | --- | --- | --- | --- | --- |
| KGGEGSGSPHSKAQNQQT | 58.472 | 0.000 | 0.034 | 0.066 | 0.037 | 0.000 | 91.023 |  |  |  |  |  |  |  |  |
| KGVLGSGSPHSKAQNQQT | 54.472 | 0.000 | 0.007 | 0.189 | 0.359 | 0.027 | 145.740 |  |  |  |  |  |  |  |  |
| KIINGRDSPHKSGQDQQT |  |  |  |  |  |  |  |  |  |  |  |  |  |  | Fold Enrichment relative to AAV9, Brain (NHP) [1, 3]: 78.773 fold; Fold Enrichment relative to AAV9, DRG (NHP) ([1]; NGS fold-enrichment, NHP DRG): 0.000 fold; Fold Enrichment relative to AAV9, Heart (NHP) ([1]; NGS fold-enrichment, NHP heart): 0.254 fold; Fold Enrichment relative to AAV9, Liver DNA (NHP) [1, 4]: 0.156 fold; Fold Enrichment relative to AAV9, Liver RNA (NHP) [1, 5]: 0.000 fold; Fold Enrichment relative to AAV9, Muscle (NHP) [1, 6]: 0.000 fold; Fold Enrichment relative to AAV9, Brain (Mouse) (brain; [7]): 16.132 fold |
| KNADGSGSPHSKAQNQQT |  |  |  |  |  |  |  | 0.000 | 60.944 | 0.000 | 0.085 | 1.239 | 0.000 | 104.503 |  |
| KNAIGSGSPHSKAQNQQT | 52.516 | 0.000 | 0.000 | 0.198 | 0.165 | 0.000 | 117.939 |  |  |  |  |  |  |  |  |
| KNALGSGSPHSKAQNQQT |  |  |  |  |  |  |  | 0.000 | 60.014 | 0.003 | 0.213 | 0.682 | 0.000 | 137.222 |  |
| KNCLGSGSPHSKAQNQQT |  |  |  |  |  |  |  | 0.000 | 61.442 | 0.036 | 0.026 | 1.849 | 0.000 | 82.488 |  |
| KNCVGSGSPHSKAQNQQT |  |  |  |  |  |  |  | 0.000 | 60.535 | 0.000 | 0.282 | 0.018 | 0.000 | 96.175 |  |
| KNCWGSGSPHSKAQNQQT | 57.756 | 0.000 | 0.000 | 0.092 | 0.000 | 0.000 | 59.888 |  |  |  |  |  |  |  |  |
| KNHIGSGSPHSKAQNQQT |  |  |  |  |  |  |  | 0.000 | 64.535 | 0.000 | 0.187 | 1.253 | 0.000 | 70.356 |  |
| KNINGGGSPHSKAQNQQT |  |  |  |  |  |  |  | 0.000 | 83.083 | 0.042 | 0.000 | 0.000 | 0.000 | 75.913 | Fold Enrichment relative to AAV9, Brain (NHP) [1, 3]: 83.083 fold; Fold Enrichment relative to AAV9, DRG (NHP) ([1]; NGS fold-enrichment, NHP DRG): 0.000 fold; Fold Enrichment relative to AAV9, Heart (NHP) ([1]; NGS fold-enrichment, NHP heart): 0.042 fold; Fold Enrichment relative to AAV9, Liver DNA (NHP) [1, 4]: 0.000 fold; Fold Enrichment relative to AAV9, Liver RNA (NHP) [1, 5]: 0.000 fold; Fold Enrichment relative to AAV9, Muscle (NHP) [1, 6]: 0.000 fold; Fold Enrichment relative to AAV9, Brain (Mouse) (brain; [7]): 75.913 fold |
| KNINGSGSPHSKAQNHQT | 54.248 | 0.000 | 0.034 | 0.075 | 0.340 | 0.000 | 74.979 |  |  |  |  |  |  |  |  |
| KNINGSGSPHSKAQNQQT (KNTNGSGSPHSKAQNQQT) |  |  |  |  |  |  |  | 0.000 | 78.445 | 0.000 | 0.177 | 0.571 | 0.000 | 89.719 |  |
| KNINGSGSPHSKAQSQQT |  |  |  |  |  |  |  | 0.000 | 73.757 | 0.000 | 0.041 | 0.000 | 0.000 | 57.432 |  |
| KNNLGSGSPHSKAQNQQT | 50.670 | 0.000 | 0.019 | 0.121 | 0.406 | 0.000 | 102.408 |  |  |  |  |  |  |  |  |
| KNSIGSGSPHSKAQNQQT | 57.101 | 0.000 | 0.052 | 0.074 | 0.083 | 0.000 | 97.381 |  |  |  |  |  |  |  |  |
| KNSLGSGSPHSKAQNQQT | 56.621 | 0.000 | 0.028 | 0.162 | 0.308 | 0.000 | 101.942 |  |  |  |  |  |  |  |  |
| KNTNGSGSPHSKAQNQQT |  |  |  |  |  |  |  |  |  |  |  |  |  |  | Fold Enrichment relative to AAV9, Brain (NHP) [1, 3]: 78.445 fold; Fold Enrichment relative to AAV9, DRG (NHP) ([1]; NGS fold-enrichment, NHP DRG): 0.000 fold; Fold Enrichment relative to AAV9, Heart (NHP) ([1]; NGS fold-enrichment, NHP heart): 0.000 fold; Fold Enrichment relative to AAV9, Liver DNA (NHP) [1, 4]: 0.177 fold; Fold Enrichment relative to AAV9, Liver RNA (NHP) [1, 5]: 0.571 fold; Fold Enrichment relative to AAV9, Muscle (NHP) [1, 6]: 0.000 fold; Fold Enrichment relative to AAV9, Brain (Mouse) (brain; [7]): 89.719 fold |
